Where only a bound is given, the exact number is not on record here.

The target of assay [1] is T1, Alpha-1A adrenergic receptor (Homo sapiens, UniProt P35348).
T1 sequence (P35348 whole entry): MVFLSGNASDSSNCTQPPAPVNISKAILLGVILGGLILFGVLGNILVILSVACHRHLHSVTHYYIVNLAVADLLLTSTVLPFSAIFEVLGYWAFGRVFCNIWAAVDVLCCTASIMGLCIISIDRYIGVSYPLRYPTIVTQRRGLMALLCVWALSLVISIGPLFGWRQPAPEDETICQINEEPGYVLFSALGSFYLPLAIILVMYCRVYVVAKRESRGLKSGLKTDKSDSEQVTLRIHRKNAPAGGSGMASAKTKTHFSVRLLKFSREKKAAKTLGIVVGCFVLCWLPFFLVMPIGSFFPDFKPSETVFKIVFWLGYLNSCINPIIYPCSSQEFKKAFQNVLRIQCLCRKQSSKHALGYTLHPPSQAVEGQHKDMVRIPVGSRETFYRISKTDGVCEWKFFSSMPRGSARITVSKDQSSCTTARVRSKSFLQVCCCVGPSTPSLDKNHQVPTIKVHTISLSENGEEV
The assay is described as follows: Binding affinity against Alpha-1A adrenergic receptor.

Assay [2] deals with T2, 5-hydroxytryptamine receptor 2C (Homo sapiens, UniProt P28335).
T2 sequence (P28335 whole entry): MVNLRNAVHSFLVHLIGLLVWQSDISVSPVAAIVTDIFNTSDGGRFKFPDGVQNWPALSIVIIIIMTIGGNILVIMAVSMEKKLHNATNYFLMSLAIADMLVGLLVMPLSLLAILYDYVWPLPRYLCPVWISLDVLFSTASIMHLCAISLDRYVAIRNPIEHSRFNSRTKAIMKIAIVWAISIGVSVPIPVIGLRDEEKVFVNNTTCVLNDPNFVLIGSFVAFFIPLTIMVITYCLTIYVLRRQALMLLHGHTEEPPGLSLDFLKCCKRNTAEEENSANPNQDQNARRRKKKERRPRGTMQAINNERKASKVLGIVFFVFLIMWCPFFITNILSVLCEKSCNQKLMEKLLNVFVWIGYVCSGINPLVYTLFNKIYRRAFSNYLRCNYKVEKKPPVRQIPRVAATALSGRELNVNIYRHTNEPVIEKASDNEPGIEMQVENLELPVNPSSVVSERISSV
Briefly: Binding affinity against 5-HT2C receptor.

The test system of assay [3] is Mus musculus. The assay is described as follows: Activity in mCPP challenge test, disinhibition measurement after sc administration. It is filed as functional.
Assay [4] concerns Mus musculus. Briefly: Activity in mCPP challenge test, exploration measurements after sc administration. It is filed as functional.
Assay [5] deals with Histamine H1 receptor (Homo sapiens, UniProt P35367). The assay is described as follows: Binding affinity against Histamine H1 receptor.
Sequence of Histamine H1 receptor (P35367 whole entry): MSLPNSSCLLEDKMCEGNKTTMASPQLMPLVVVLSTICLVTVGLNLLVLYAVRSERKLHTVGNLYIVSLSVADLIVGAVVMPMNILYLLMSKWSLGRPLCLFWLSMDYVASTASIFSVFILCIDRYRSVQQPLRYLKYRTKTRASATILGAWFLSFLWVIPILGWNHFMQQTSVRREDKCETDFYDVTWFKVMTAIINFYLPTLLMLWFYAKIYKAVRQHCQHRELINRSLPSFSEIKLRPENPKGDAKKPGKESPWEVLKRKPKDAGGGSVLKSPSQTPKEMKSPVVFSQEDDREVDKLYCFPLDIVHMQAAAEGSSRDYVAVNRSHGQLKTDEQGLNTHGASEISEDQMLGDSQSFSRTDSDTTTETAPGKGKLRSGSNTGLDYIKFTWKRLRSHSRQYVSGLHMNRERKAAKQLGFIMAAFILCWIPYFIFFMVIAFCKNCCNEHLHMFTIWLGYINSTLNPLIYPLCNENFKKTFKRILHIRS
Assay [6] concerns the target T3, D(4) dopamine receptor (Homo sapiens, UniProt P21917).
T3 sequence (P21917 whole entry): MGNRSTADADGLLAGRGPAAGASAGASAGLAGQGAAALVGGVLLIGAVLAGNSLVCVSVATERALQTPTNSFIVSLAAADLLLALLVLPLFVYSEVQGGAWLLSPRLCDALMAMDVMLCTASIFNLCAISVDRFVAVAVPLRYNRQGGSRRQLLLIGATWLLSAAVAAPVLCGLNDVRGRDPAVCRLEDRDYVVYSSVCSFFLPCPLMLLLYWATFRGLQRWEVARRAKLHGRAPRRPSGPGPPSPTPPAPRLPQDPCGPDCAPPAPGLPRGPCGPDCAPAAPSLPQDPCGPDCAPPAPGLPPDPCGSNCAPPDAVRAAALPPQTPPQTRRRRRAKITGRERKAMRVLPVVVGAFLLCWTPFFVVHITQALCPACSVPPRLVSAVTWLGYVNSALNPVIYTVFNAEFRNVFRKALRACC
The assay is described as follows: Binding affinity against Dopamine receptor D4.

In assay [7] the target is D(3) dopamine receptor (Homo sapiens, UniProt P35462). Briefly: Binding affinity against Dopamine receptor D3.
Sequence of D(3) dopamine receptor (P35462 whole entry): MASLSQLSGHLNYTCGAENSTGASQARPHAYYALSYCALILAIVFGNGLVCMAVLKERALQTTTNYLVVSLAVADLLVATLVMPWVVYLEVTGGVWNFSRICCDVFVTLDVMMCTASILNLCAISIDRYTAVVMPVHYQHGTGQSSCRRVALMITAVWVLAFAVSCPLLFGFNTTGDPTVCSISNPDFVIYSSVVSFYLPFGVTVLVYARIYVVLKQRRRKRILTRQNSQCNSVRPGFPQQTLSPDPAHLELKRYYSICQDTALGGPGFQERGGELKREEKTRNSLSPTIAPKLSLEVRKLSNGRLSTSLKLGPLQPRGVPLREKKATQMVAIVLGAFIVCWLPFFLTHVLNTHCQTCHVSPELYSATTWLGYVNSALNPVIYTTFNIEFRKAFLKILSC
The target in assay [8] is D(2) dopamine receptor (Homo sapiens, UniProt P14416). Briefly: Binding affinity against Dopamine receptor D2L.
Sequence of D(2) dopamine receptor (P14416 whole entry): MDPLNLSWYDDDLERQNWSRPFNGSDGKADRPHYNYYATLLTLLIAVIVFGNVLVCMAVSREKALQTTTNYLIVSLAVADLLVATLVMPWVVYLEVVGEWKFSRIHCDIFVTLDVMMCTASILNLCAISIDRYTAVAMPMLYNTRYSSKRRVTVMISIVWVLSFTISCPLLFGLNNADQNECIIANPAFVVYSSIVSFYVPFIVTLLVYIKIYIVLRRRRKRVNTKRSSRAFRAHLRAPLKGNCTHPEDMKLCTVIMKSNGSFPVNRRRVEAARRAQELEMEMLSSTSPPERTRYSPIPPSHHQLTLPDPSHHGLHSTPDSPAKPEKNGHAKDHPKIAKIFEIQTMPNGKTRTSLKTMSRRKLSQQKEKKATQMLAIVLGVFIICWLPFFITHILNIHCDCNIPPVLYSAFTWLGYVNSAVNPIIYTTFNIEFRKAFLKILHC
Assay [9] addresses T4, 5-hydroxytryptamine receptor 2A (Homo sapiens, UniProt P28223). Briefly: Binding affinity against 5-hydroxytryptamine 2A receptor.
The target of assay [10] is T5, Alpha-2A adrenergic receptor (Homo sapiens, UniProt P08913).
T5 sequence (P08913 whole entry): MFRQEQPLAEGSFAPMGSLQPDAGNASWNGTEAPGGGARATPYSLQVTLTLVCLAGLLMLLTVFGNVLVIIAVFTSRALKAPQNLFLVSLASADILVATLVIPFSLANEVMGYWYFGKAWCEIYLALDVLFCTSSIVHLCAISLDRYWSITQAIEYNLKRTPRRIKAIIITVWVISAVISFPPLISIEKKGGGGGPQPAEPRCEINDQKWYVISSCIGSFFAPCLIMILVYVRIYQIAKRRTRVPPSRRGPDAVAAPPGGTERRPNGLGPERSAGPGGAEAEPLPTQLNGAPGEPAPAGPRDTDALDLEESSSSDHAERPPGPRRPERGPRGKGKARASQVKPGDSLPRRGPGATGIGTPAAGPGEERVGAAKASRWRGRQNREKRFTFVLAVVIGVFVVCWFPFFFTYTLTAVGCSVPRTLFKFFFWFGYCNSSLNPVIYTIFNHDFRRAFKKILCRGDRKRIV
The assay is described as follows: Binding affinity against Alpha-2A adrenergic receptor.

Assay [11] deals with T4, 5-hydroxytryptamine receptor 2A. Briefly: Binding affinity against 5-HT2A receptor.
Assay [12] concerns the target T6, 5-hydroxytryptamine receptor 1D (Homo sapiens, UniProt P28221). The assay is described as follows: Binding affinity against 5-hydroxytryptamine 1D receptor.
Target sequence in this assay (P28221 whole entry, looked up): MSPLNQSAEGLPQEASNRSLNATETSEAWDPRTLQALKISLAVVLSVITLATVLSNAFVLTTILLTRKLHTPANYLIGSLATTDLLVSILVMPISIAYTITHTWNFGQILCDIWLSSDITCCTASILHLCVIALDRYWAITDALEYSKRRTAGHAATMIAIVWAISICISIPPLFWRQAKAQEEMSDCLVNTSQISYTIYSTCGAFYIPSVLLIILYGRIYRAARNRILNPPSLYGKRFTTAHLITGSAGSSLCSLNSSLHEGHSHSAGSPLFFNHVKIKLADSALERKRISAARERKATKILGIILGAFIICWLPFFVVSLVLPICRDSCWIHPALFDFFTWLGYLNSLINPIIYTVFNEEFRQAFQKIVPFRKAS
Assay [13] addresses T6, 5-hydroxytryptamine receptor 1D. Briefly: Binding affinity against 5-HT1D receptor.
Target sequence in this assay (P28221 whole entry): as the sequence (P28221 whole entry, looked up) above
The target of assay [14] is T7, 5-hydroxytryptamine receptor 1A (Homo sapiens, UniProt P08908).
T7 sequence (P08908 whole entry): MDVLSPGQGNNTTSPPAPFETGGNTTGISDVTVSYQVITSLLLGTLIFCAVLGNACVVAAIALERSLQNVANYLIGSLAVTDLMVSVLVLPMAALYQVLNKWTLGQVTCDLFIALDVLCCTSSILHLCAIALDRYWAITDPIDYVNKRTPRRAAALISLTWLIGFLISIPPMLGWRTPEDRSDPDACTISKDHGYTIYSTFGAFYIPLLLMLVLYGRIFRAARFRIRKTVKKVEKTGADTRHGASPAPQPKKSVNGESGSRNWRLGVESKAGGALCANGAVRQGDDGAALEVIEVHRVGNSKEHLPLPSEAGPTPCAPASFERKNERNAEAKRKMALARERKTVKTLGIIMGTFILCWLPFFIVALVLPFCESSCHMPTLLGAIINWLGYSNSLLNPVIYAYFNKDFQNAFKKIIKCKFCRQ
Briefly: Binding affinity against 5-HT1A receptor.

T4 sequence (P28223 whole entry): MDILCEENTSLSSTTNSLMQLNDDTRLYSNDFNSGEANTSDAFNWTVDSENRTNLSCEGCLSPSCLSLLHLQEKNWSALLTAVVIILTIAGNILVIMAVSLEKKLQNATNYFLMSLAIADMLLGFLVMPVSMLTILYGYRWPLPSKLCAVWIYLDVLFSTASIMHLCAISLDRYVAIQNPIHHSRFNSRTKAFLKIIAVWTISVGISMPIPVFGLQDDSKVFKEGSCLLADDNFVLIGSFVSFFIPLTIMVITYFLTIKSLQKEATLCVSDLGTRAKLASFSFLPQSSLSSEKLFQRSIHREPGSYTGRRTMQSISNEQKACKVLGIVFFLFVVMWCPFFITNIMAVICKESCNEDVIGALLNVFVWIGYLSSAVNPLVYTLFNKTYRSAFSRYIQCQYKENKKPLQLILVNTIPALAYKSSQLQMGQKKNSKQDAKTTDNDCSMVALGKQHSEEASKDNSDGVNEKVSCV

`CN(C)CC1CC2c3ccccc3Cc3ccc(Cl)cc3N2O1` (stereo not given): the IC50 is 14.5 nM in [1], 1.05 nM in assay [2], 2.34 nM in assay [5] and 2.63 nM in [6]. The ED50 in assay [3] is 0.16 mg/kg; in assay [4], greater than 2.5 mg/kg.

As for `CN(C)CC1CC2c3ccccc3Cc3ccncc3N2O1` (stereo not given), the IC50 in assay [7] was 1660 nM; in assay [1], 398 nM; in assay [8], 1910 nM; in assay [9], 389 nM; in assay [2], 12.6 nM; in [10] it was greater than 1000 nM. For the same molecule, the IC50 was greater than 1000 nM in assay [5] and 251 nM in [6]. Also, the ED50 in assay [3] amounted to 0.16 mg/kg; in [4], 2.5 mg/kg.

Turning to `CN(C)CC1CC2c3cccnc3Cc3ccccc3N2O1` (stereo not given), the IC50 is greater than 1000 nM in [7]; greater than 1000 nM in assay [11]; 912 nM in assay [12]; greater than 1000 nM in [1]; greater than 1000 nM in assay [8]; greater than 1000 nM in assay [13]. Further, the IC50 is greater than 1000 nM in assay [14], greater than 1000 nM in assay [10], 16.6 nM in assay [5] and greater than 1000 nM in assay [6]. Further, the ED50 in assay [3] and in assay [4] was less than 2.5 mg/kg in each case.

For `CN(C)CC1CC2c3ccccc3Cc3ccccc3N2O1` (stereo not given), the values for the ED50 in assay [3] and in [4] were 0.01 mg/kg and greater than 2.5 mg/kg, respectively.

The IC50 is the concentration at which inhibition is half-maximal. A high value points to lower potency. As usually defined, the ED50 is the dose at which the effect has come halfway, by size or by number of responders. High values mean weaker potency, low ones greater potency.

(Values after ChEMBL document CHEMBL1135009, “2-(Dimethylaminomethyl)-tetrahydroisoxazolopyridobenzazepine derivatives. Synthesis of a new 5-HT(2C) antagonist with potential anxiolytic properties” (Bioorg Med Chem Lett, 2002).)
